Measurements taken from ChEMBL document CHEMBL5154747, “Discovery of new carbonic anhydrase IX inhibitors as anticancer agents by toning the hydrophobic and hydrophilic rims of the active site to encounter the dual-tail approach” (Eur J Med Chem, 2022).

Experiments:
Assay type in all cases: functional
Malme-3M = experiment: Anticancer activity against human Malme-3M cells assessed as cell growth inhibition incubated for 48 hrs by SRB assay; conditions: for CC50: read-out: LC50 (the source's name)
SF-268 = experiment: Anticancer activity against human SF-268 cells assessed as cell growth inhibition incubated for 48 hrs by SRB assay
MDA-MB-231 = experiment: Anticancer activity against human MDA-MB-231 cells assessed as cell growth inhibition incubated for 48 hrs by SRB assay
RXF 393 = experiment: Anticancer activity against human RXF 393 cells assessed as cell growth inhibition incubated for 48 hrs by SRB assay; conditions: for CC50: read-out: LC50 (the source's name)
M14 = experiment: Anticancer activity against human M14 cells assessed as cell growth inhibition incubated for 48 hrs by SRB assay
SNB-19 = experiment: Anticancer activity against human SNB-19 cells assessed as cell growth inhibition incubated for 48 hrs by SRB assay; conditions: for CC50: read-out: LC50 (the source's name)
SN12C = experiment: Anticancer activity against human SN12C cells assessed as cell growth inhibition incubated for 48 hrs by SRB assay
OVCAR-3 = experiment: Anticancer activity against human OVCAR-3 cells assessed as cell growth inhibition incubated for 48 hrs by SRB assay
MDA-MB-435 = experiment: Anticancer activity against human MDA-MB-435 cells assessed as cell growth inhibition incubated for 48 hrs by SRB assay
SK-MEL-2 = experiment: Anticancer activity against human SK-MEL-2 cells assessed as cell growth inhibition incubated for 48 hrs by SRB assay
HCT-116 = experiment: Anticancer activity against human HCT-116 cells assessed as cell growth inhibition incubated for 48 hrs by SRB assay
Hs-578T = experiment: Anticancer activity against human Hs-578T cells assessed as cell growth inhibition incubated for 48 hrs by SRB assay
NCI-H522 = experiment: Anticancer activity against human NCI-H522 cells assessed as cell growth inhibition incubated for 48 hrs by SRB assay; conditions: for CC50: read-out: LC50 (the source's name)
NCI-H460 = experiment: Anticancer activity against human NCI-H460 cells assessed as cell growth inhibition incubated for 48 hrs by SRB assay; conditions: for CC50: read-out: LC50 (the source's name)
CAKI-1 = experiment: Anticancer activity against human CAKI-1 cells assessed as cell growth inhibition incubated for 48 hrs by SRB assay; conditions: for CC50: read-out: LC50 (the source's name)
UACC-62 = experiment: Anticancer activity against human UACC-62 cells assessed as cell growth inhibition incubated for 48 hrs by SRB assay
HOP-62 = experiment: Anticancer activity against human HOP-62 cells assessed as cell growth inhibition incubated for 48 hrs by SRB assay; conditions: for CC50: read-out: LC50 (the source's name)
NCI-H322M = experiment: Anticancer activity against human NCI-H322M cells assessed as cell growth inhibition incubated for 48 hrs by SRB assay; conditions: for CC50: read-out: LC50 (the source's name)
786-0 = experiment: Anticancer activity against human 786-0 cells assessed as cell growth inhibition incubated for 48 hrs by SRB assay; conditions: for CC50: read-out: LC50 (the source's name)
DU-145 = experiment: Anticancer activity against human DU-145 cells assessed as cell growth inhibition incubated for 48 hrs by SRB assay
K562 = experiment: Anticancer activity against human K562 cells assessed as cell growth inhibition incubated for 48 hrs by SRB assay; conditions: for CC50: read-out: LC50 (the source's name)
OVCAR-4 = experiment: Anticancer activity against human OVCAR-4 cells assessed as cell growth inhibition incubated for 48 hrs by SRB assay
EKVX = experiment: Anticancer activity against human EKVX cells assessed as cell growth inhibition incubated for 48 hrs by SRB assay; conditions: for CC50: read-out: LC50 (the source's name)
SF-539 = experiment: Anticancer activity against human SF-539 cells assessed as cell growth inhibition incubated for 48 hrs by SRB assay; conditions: for CC50: read-out: LC50 (the source's name)
SW-620 = experiment: Anticancer activity against human SW-620 cells assessed as cell growth inhibition incubated for 48 hrs by SRB assay; conditions: for CC50: read-out: LC50 (the source's name)
RPMI-8226 = experiment: Anticancer activity against human RPMI-8226 cells assessed as cell growth inhibition incubated for 48 hrs by SRB assay
OVCAR-8 = experiment: Anticancer activity against human OVCAR-8 cells assessed as cell growth inhibition incubated for 48 hrs by SRB assay
U-251 = experiment: Anticancer activity against human U-251 cells assessed as cell growth inhibition incubated for 48 hrs by SRB assay; conditions: for CC50: read-out: LC50 (the source's name)
UACC-257 = experiment: Anticancer activity against human UACC-257 cells assessed as cell growth inhibition incubated for 48 hrs by SRB assay
NCI-H226 = experiment: Anticancer activity against human NCI-H226 cells assessed as cell growth inhibition incubated for 48 hrs by SRB assay; conditions: for CC50: read-out: LC50 (the source's name)
HL-60(TB) = experiment: Anticancer activity against human HL-60(TB) cells assessed as cell growth inhibition incubated for 48 hrs by SRB assay; conditions: for CC50: read-out: LC50 (the source's name)
CCRF-CEM = experiment: Anticancer activity against human CCRF-CEM cells assessed as cell growth inhibition incubated for 48 hrs by SRB assay; conditions: for CC50: read-out: LC50 (the source's name)
SK-OV-3 = experiment: Anticancer activity against human SK-OV-3 cells assessed as cell growth inhibition incubated for 48 hrs by SRB assay
COLO 205 = experiment: Anticancer activity against human COLO 205 cells assessed as cell growth inhibition incubated for 48 hrs by SRB assay; conditions: for CC50: read-out: LC50 (the source's name)
SR = experiment: Anticancer activity against human SR cells assessed as cell growth inhibition incubated for 48 hrs by SRB assay; conditions: for CC50: read-out: LC50 (the source's name)
KM12 = experiment: Anticancer activity against human KM12 cells assessed as cell growth inhibition incubated for 48 hrs by SRB assay; conditions: for CC50: read-out: LC50 (the source's name)
A498 = experiment: Anticancer activity against human A498 cells assessed as cell growth inhibition incubated for 48 hrs by SRB assay; conditions: for CC50: read-out: LC50 (the source's name)
OVCAR-5 = experiment: Anticancer activity against human OVCAR-5 cells assessed as cell growth inhibition incubated for 48 hrs by SRB assay; conditions: for CC50: read-out: LC50 (the source's name)
HOP-92 = experiment: Anticancer activity against human HOP-92 cells assessed as cell growth inhibition incubated for 48 hrs by SRB assay; conditions: for CC50: read-out: LC50 (the source's name)
[1] = read-out: LC50 (the source's name)

NS(=O)(=O)c1ccc(Nc2nc(N/N=C/c3ccccn3)nc(Nc3ccccc3)n2)cc1
GI50 (Malme-3M): 1 µM
CC50 (Malme-3M): 6.28 µM
GI50 (SF-268): 0.46 µM
LC50 (concentration killing 50% of cells) (SF-268): > 100 µM
GI50 (MDA-MB-231): 0.5 µM
LC50 (concentration killing 50% of cells) (MDA-MB-231): > 100 µM
GI50 (RXF 393): 1.07 µM
CC50 (RXF 393): 6.51 µM
GI50 (M14): 0.85 µM
GI50 (SNB-19): 0.85 µM
CC50 (SNB-19): > 100 µM
GI50 (SN12C): 1.01 µM
LC50 (SN12C): > 100 µM
GI50 (OVCAR-3): 0.46 µM
LC50 (concentration killing 50% of cells) (OVCAR-3): > 100 µM
GI50 (MDA-MB-435): 0.91 µM
LC50 (MDA-MB-435): 5.93 µM
GI50 (SK-MEL-2): 1.5 µM
GI50 (HCT-116): 0.39 µM
LC50 (concentration killing 50% of cells) (HCT-116): > 100 µM
GI50 (Hs-578T): 1.88 µM
LC50 (concentration killing 50% of cells) (Hs-578T): > 100 µM
GI50 (NCI-H522): 0.45 µM
CC50 (NCI-H522): > 100 µM
GI50 (NCI-H460): 2.41 µM
CC50 (NCI-H460): > 100 µM
GI50 (CAKI-1): 0.61 µM
CC50 (CAKI-1): > 100 µM
GI50 (UACC-62): 0.57 µM
LC50 (UACC-62): 6.15 µM
GI50 (HOP-62): 0.55 µM
CC50 (HOP-62): > 100 µM
GI50 (NCI-H322M): 0.4 µM
CC50 (NCI-H322M): > 100 µM
GI50 (786-0): 1.06 µM
CC50 (786-0): > 100 µM
GI50 (DU-145): 0.85 µM
LC50 (50% lethal concentration) (DU-145): > 100 µM
GI50 (K562): 0.4 µM
CC50 (K562): > 100 µM
GI50 (OVCAR-4): 0.44 µM
LC50 (concentration killing 50% of cells) (OVCAR-4): > 100 µM
GI50 (EKVX): 0.71 µM
CC50 (EKVX): > 100 µM
GI50 (SF-539): 0.68 µM
CC50 (SF-539): 8 µM
GI50 (SW-620): 0.71 µM
CC50 (SW-620): > 100 µM
GI50 (RPMI-8226): 2.11 µM
LC50 (concentration killing 50% of cells) (RPMI-8226): > 100 µM
GI50 (OVCAR-8): 0.44 µM
LC50 (OVCAR-8): > 100 µM
GI50 (U-251): 0.51 µM
CC50 (U-251): > 100 µM
GI50 (UACC-257): 2.14 µM
LC50 (UACC-257): > 100 µM
GI50 (NCI-H226): 1.07 µM
CC50 (NCI-H226): > 100 µM
GI50 (HL-60(TB)): 0.63 µM
CC50 (HL-60(TB)): > 100 µM
GI50 (CCRF-CEM): 0.31 µM
CC50 (CCRF-CEM): > 100 µM
GI50 (SK-OV-3): 0.84 µM
LC50 (SK-OV-3): > 100 µM
GI50 (COLO 205): 0.41 µM
CC50 (COLO 205): > 100 µM
GI50 (SR): 0.33 µM
CC50 (SR): > 100 µM
GI50 (KM12): 2.14 µM
CC50 (KM12): > 100 µM
GI50 (A498): 1.61 µM
CC50 (A498): 6.89 µM
GI50 (OVCAR-5): 1.6 µM
CC50 (OVCAR-5): > 100 µM
GI50 (HOP-92): 0.8 µM
CC50 (HOP-92): > 100 µM

NS(=O)(=O)c1ccc(Nc2nc(N/N=C/c3ccc(C(F)(F)F)cc3)nc(Nc3ccccc3)n2)cc1
GI50 (Malme-3M): 1.87 µM
CC50 (Malme-3M): 8.15 µM
GI50 (SF-268): 3.51 µM
LC50 (concentration killing 50% of cells) (SF-268): > 100 µM
GI50 (MDA-MB-231): 2.31 µM
LC50 (concentration killing 50% of cells) (MDA-MB-231): 33.7 µM
GI50 (RXF 393): 1.82 µM
CC50 (RXF 393): 35.5 µM
GI50 (M14): 2.51 µM
CC50 (M14; [1]): 63.3 µM
GI50 (SNB-19): 3.46 µM
CC50 (SNB-19): 40.6 µM
GI50 (SN12C): 3 µM
LC50 (SN12C): 86.6 µM
GI50 (OVCAR-3): 3.32 µM
LC50 (concentration killing 50% of cells) (OVCAR-3): > 100 µM
GI50 (MDA-MB-435): 2.07 µM
LC50 (MDA-MB-435): 9.53 µM
GI50 (SK-MEL-2): 2.17 µM
CC50 (SK-MEL-2; [1]): 42.7 µM
GI50 (HCT-116): 3.1 µM
LC50 (concentration killing 50% of cells) (HCT-116): 64 µM
GI50 (Hs-578T): 3.07 µM
LC50 (concentration killing 50% of cells) (Hs-578T): > 100 µM
GI50 (NCI-H522): 2.66 µM
CC50 (NCI-H522): 87.1 µM
GI50 (NCI-H460): 3.02 µM
CC50 (NCI-H460): > 100 µM
GI50 (CAKI-1): 3.05 µM
CC50 (CAKI-1): 51.9 µM
GI50 (UACC-62): 2.35 µM
LC50 (UACC-62): 16.2 µM
GI50 (HOP-62): 2.15 µM
CC50 (HOP-62): 69.7 µM
GI50 (NCI-H322M): 3.31 µM
CC50 (NCI-H322M): 36.1 µM
GI50 (786-0): 2.22 µM
CC50 (786-0): 33.7 µM
GI50 (DU-145): 3.31 µM
LC50 (50% lethal concentration) (DU-145): 36.7 µM
GI50 (K562): 3.51 µM
CC50 (K562): > 100 µM
GI50 (OVCAR-4): 3.69 µM
LC50 (concentration killing 50% of cells) (OVCAR-4): > 100 µM
GI50 (EKVX): 2.62 µM
CC50 (EKVX): 40.3 µM
GI50 (SF-539): 1.86 µM
CC50 (SF-539): 9.61 µM
GI50 (SW-620): 3.3 µM
CC50 (SW-620): > 100 µM
GI50 (RPMI-8226): 2.77 µM
LC50 (concentration killing 50% of cells) (RPMI-8226): > 100 µM
GI50 (OVCAR-8): 2.83 µM
LC50 (OVCAR-8): 35.5 µM
GI50 (U-251): 2.69 µM
CC50 (U-251): 71.4 µM
GI50 (UACC-257): 2.42 µM
LC50 (UACC-257): 37.2 µM
GI50 (NCI-H226): 2.45 µM
CC50 (NCI-H226): > 100 µM
GI50 (HL-60(TB)): 3.59 µM
CC50 (HL-60(TB)): > 100 µM
GI50 (CCRF-CEM): 3 µM
CC50 (CCRF-CEM): > 100 µM
GI50 (SK-OV-3): 3.66 µM
LC50 (SK-OV-3): > 100 µM
GI50 (COLO 205): 1.86 µM
CC50 (COLO 205): 10.9 µM
GI50 (SR): 3.07 µM
CC50 (SR): > 100 µM
GI50 (KM12): 2.38 µM
CC50 (KM12): 24.8 µM
GI50 (A498): 2.61 µM
CC50 (A498): 63.8 µM
GI50 (OVCAR-5): 2.96 µM
CC50 (OVCAR-5): 39.9 µM
GI50 (HOP-92): 2.38 µM
CC50 (HOP-92): 39.8 µM
